Reference: patent US9073967B2, “High salt-resistance antibacterial peptide and method for producing the same” (NATIONAL TSING HUA UNIVERSITY, priority 2011, dated 2015)
Converted amounts (≈) assume the structure as drawn. “Also recorded” adds a separate entry of the source. Read-outs that look alike come from different tables or passages of the source. Where a SMILES comes first, the peptide text is derived from it. [ ]: non-standard residue; d: D form. 2Nal = N[C@@H](Cc1ccc2ccccc2c1)C(=O)O

How the values were obtained:
S. aureus ATCC 25923 [1] = assay: Antibacterial ability in different salt (NaCl) concentration, LYM medium
Procedure: (§4) All bacteria strains of above microbes were cultured in LYM medium. […] The NaCl concentrations in LYM were divided into four groups of 50 mM, 100 mM, 200 mM, 300 mM and the microbes were cultured in the four group of LYM and diluted to a 10^4 CFU/ml bacterial solution. Then added 100 μl of the bacterial solution into 96-well culture dish and added different concentration of antibacterial peptides P113, Phe-P113, Nal-P113 or Bip-P113 to evaluate the antibacterial ability in 50 mM, 100 mM, 200 mM, 300 mM concentration of NaCl. (Note: In addition to NaCl, the LYM medium also contains 5.4 mM KCl, 5.6 mM Na2HPO4, 0.5 mM MgSO4, and 1.0 mM sodium citrate. Besides, 0.4 mg of ZnCl2, 2.0 mg of FeCl3.6H2O, 0.1 mg of CuSO4.5H2O, 0.1 mg of MnSO4.H2O, 0.1 mg of Na2B4O7.10H2O, 700 mg of amino acid mixtures without tryptophan (Clontech), and 20 mg of L-Tryptophan were added per liter of medium. Then added moderate amount of glucose, amino acid, and vitamins mixture from the RPM1-1640 Select-Amine Kit)

[2] = tested on: C. tropicalis ATCC 13803 YLO86
P. arugenosa ATCC 27853 [3] = assay: Antibacterial ability in different MgCl2 concentration; assay type: cell-based
[4] = tested on: Staphylococcus aureus strains ATCC 25923; assay: Antibacterial activity assay, NCCLS microdilution MIC in MHB; assay type: cell-based
Text: (§1) For testing the antibacterial ability of Phe-P113, Nal-P113 and Bip-P113 in different salt concentration, we use Antibacterial activity assay to perform the test. Three bacteria strains are used: Eschericha coli strains (ATCC 25922), Staphylococcus aureus strains (ATCC 25923, 29213 and 19636, methicillin-resistant) and Pseudomonas aeruginosa strains (ATCC 27853 and 9027, ampicillin-resistant).
(§2) The microdilution method of National Committee for Clinical Laboratory Standards (NCCLS) is used to evaluate ‘The minimal inhibition concentration (MIC)’. The minimum concentration that can inhibit 90% or more microbes is the ‘minimal inhibition concentration’.
(§3) In the microdilution method, the 1 μl peptide solution (The concentration is between the range of 5000 μg/ml to 78.1 μg/ml) and the 99 μl inoculums (5×10^5 CFU/ml) is mixed incubated in 96-well culture dish coated with polyethylene under 37° C. for 16 hr. Then evaluated the turbidity in O.D.600 by ELISA plate reader (Thermo Max, Molecular Devices, Sunnyvale, Calif.). Take the Muller-Hinton Broth (MHB) and inoculums suspension with adding peptides as negative and positive control group relatively. The result of MIC is the minimum concentration of peptides that can inhibit the bacteria growth (equal to or more than 90%).

[5] = tested on: Staphylococcus aureus strains ATCC 19636; assay: as above; assay type: cell-based
Text: as §1, §2, §3

[6] = tested on: Eschericha coli strains ATCC 25922; assay: as above; assay type: cell-based
Text: as §1, §2, §3

[7] = tested on: Staphylococcus aureus strains ATCC 29213; assay: as above; assay type: cell-based
Text: as §1, §2, §3

[8] = tested on: Pseudomonas aeruginosa strains ATCC 27853; assay: as above; assay type: cell-based
Text: as §1, §2, §3

[9] = tested on: Pseudomonas aeruginosa strains ATTC 9027; assay: as above; assay type: cell-based
Text: as §1, §2, §3

P. arugenosa ATCC 27853 [10] = assay: Antibacterial ability in different salt (NaCl) concentration, LYM medium
Procedure: as §4

S. aureus ATCC 19636 [11] = assay: as above
Procedure: as §4

E. coli ATCC 25922 [12] = assay: Antibacterial ability in different MgCl2 concentration; assay type: cell-based
S. aureus ATCC 19636 [13] = assay: as above; assay type: cell-based
P. arugenosa ATCC 9027 [14] = assay: Antibacterial ability in different salt (NaCl) concentration, LYM medium
Procedure: as §4

E. coli ATCC 25922 [15] = assay: as above
Procedure: as §4

S. aureus ATCC 29213 [16] = assay: as above
Procedure: as §4

S. aureus ATCC 25923 [17] = assay: Antibacterial ability in different MgCl2 concentration; assay type: cell-based
Bacteria strains = assay: Antibacterial ability in different salt concentration, overall statement; settings: different concentration of NaCl / salt
Procedure: as §4

S. aureus ATCC 29213 [18] = assay: Antibacterial ability in different MgCl2 concentration; assay type: cell-based
P. arugenosa ATCC 9027 [19] = assay: as above; assay type: cell-based
[20] = tested on: C. glabrata HIV patient YHO50105; assay: organism not typed
[21] = tested on: C. tropicalis HIV patient YHO50114; assay: organism not typed
[22] = tested on: C. tropicalis HIV patient YHO50013; assay: organism not typed
[23] = tested on: C. albicans HIV patient YHO50005; assay: organism not typed
[24] = tested on: C. parapsilosis ATCC 22019 YLO7; assay: microbe, parasite or virus in culture; settings: Lodderomyces parapsilosis, ATCC22019
[25] = tested on: C. albicans HIV patient YHO50072; assay: organism not typed
[26] = tested on: C. albicans ATCC 90028 YLO12; assay: microbe, parasite or virus in culture; settings: Candida albicans, ATCC90028
[27] = tested on: C. tropicalis ATCC 13803 YLO86; assay: microbe, parasite or virus in culture; settings: Candida tropicalis, ATCC13803
[28] = tested on: C. albicans HIV patient YHO50001; assay: organism not typed
[29] = tested on: C. dubliniensis HIV patient YHO50092; assay: organism not typed
[30] = tested on: C. tropicalis HIV patient YHO50007; assay: organism not typed
[31] = tested on: C. glabrata ATCC 9003 YLO8; assay: microbe, parasite or virus in culture; settings: Nakaseomyces glabratus, ATCC9003
C. krusei ATCC 6258 YLO6 = assay: microbe, parasite or virus in culture; settings: Pichia kudriavzevii, ATCC6258
[32] = tested on: C. krusei HIV patient YHO50075; assay: organism not typed

With `C[C@H](N)C(=O)N[C@@H](CCCCN)C(=O)N[C@@H](CCCNC(=N)N)C(=O)N[C@@H](Cc1ccc2ccccc2c1)C(=O)N[C@@H](Cc1ccc2ccccc2c1)C(=O)NCC(=O)N[C@@H](Cc1ccc(O)cc1)C(=O)N[C@@H](CCCCN)C(=O)N[C@@H](CCCNC(=N)N)C(=O)N[C@@H](CCCCN)C(=O)N[C@@H](Cc1ccccc1)C(=O)N[C@@H](Cc1ccc2ccccc2c1)C(N)=O` [Nal-P113] (H-AKR[2Nal][2Nal]GYKRKF[2Nal]-NH2; N-terminus and C-terminus assumed) the “antibacterial ability (MIC)” value (S. aureus ATCC 25923 [1]; NaCl 50 mM) was 1.56, the “antibacterial ability (MIC)” value (S. aureus ATCC 25923 [1]; NaCl 100 mM) was 3.125 and the “antibacterial ability (MIC)” value (S. aureus ATCC 25923 [1]; NaCl 200 mM) was 12.5. For the same molecule, the “antibacterial ability (MIC)” value (S. aureus ATCC 25923 [1]; NaCl 300 mM) was 50, the MIC [2] was 6.25 µg/mL (≈ 3.58 µM) and the antibacterial ability (MIC) (P. arugenosa ATCC 27853 [3]; Control group) was 1.56 µg/mL. It also gave an antibacterial ability (MIC) (P. arugenosa ATCC 27853 [3]; MgCl2 0.5 mM) of 3.12 µg/mL, an antibacterial ability (MIC) (P. arugenosa ATCC 27853 [3]; MgCl2 1.5 mM) of 3.21 µg/mL and an antibacterial ability (MIC) (P. arugenosa ATCC 27853 [3]; MgCl2 2.5 mM) of 6.25 µg/mL. The “minimal inhibition concentration (MIC)” value [4] was 6.25, the “minimal inhibition concentration (MIC)” value [5] was 6.25 and the “minimal inhibition concentration (MIC)” value [6] was 12.5. The “minimal inhibition concentration (MIC)” value [7] was 6.25, the “minimal inhibition concentration (MIC)” value [8] was 50 and the “minimal inhibition concentration (MIC)” value [9] was 50. For the same molecule, the “antibacterial ability (MIC)” value (P. arugenosa ATCC 27853 [10]; NaCl 50 mM) was 1.56, the “antibacterial ability (MIC)” value (P. arugenosa ATCC 27853 [10]; NaCl 100 mM) was 12.5 and the “antibacterial ability (MIC)” value (P. arugenosa ATCC 27853 [10]; NaCl 200 mM) was 50. The “antibacterial ability (MIC)” value (P. arugenosa ATCC 27853 [10]; NaCl 300 mM) was greater than 50, the “antibacterial ability (MIC)” value (S. aureus ATCC 19636 [11]; NaCl 50 mM) was 12.5 and the “antibacterial ability (MIC)” value (S. aureus ATCC 19636 [11]; NaCl 100 mM) was 25. The “antibacterial ability (MIC)” value (S. aureus ATCC 19636 [11]; NaCl 200 mM) was 50, the “antibacterial ability (MIC)” value (S. aureus ATCC 19636 [11]; NaCl 300 mM) was 50 and the antibacterial ability (MIC) (E. coli ATCC 25922 [12]; Control group) was 3.12 µg/mL. The antibacterial ability (MIC) (E. coli ATCC 25922 [12]; MgCl2 0.5 mM) was 3.12 µg/mL, the antibacterial ability (MIC) (E. coli ATCC 25922 [12]; MgCl2 1.5 mM) was 6.25 µg/mL and the antibacterial ability (MIC) (E. coli ATCC 25922 [12]; MgCl2 2.5 mM) was 12.5 µg/mL. For the same molecule, the antibacterial ability (MIC) (S. aureus ATCC 19636 [13]; Control group) was 6.25 µg/mL, the antibacterial ability (MIC) (S. aureus ATCC 19636 [13]; MgCl2 0.5 mM) was 12.5 µg/mL and the antibacterial ability (MIC) (S. aureus ATCC 19636 [13]; MgCl2 1.5 mM) was 12.5 µg/mL. The antibacterial ability (MIC) (S. aureus ATCC 19636 [13]; MgCl2 2.5 mM) was 25 µg/mL, the “antibacterial ability (MIC)” value (P. arugenosa ATCC 9027 [14]; NaCl 50 mM) was 6.25 and the “antibacterial ability (MIC)” value (P. arugenosa ATCC 9027 [14]; NaCl 100 mM) was 50. The “antibacterial ability (MIC)” value (P. arugenosa ATCC 9027 [14]; NaCl 200 mM) was 50, the “antibacterial ability (MIC)” value (P. arugenosa ATCC 9027 [14]; NaCl 300 mM) was greater than 50 and the “antibacterial ability (MIC)” value (E. coli ATCC 25922 [15]; NaCl 50 mM) was 3.125. For the same molecule, the “antibacterial ability (MIC)” value (E. coli ATCC 25922 [15]; NaCl 100 mM) was 12.5, the “antibacterial ability (MIC)” value (E. coli ATCC 25922 [15]; NaCl 200 mM) was 25 and the “antibacterial ability (MIC)” value (E. coli ATCC 25922 [15]; NaCl 300 mM) was 50. The “antibacterial ability (MIC)” value (S. aureus ATCC 29213 [16]; NaCl 50 mM) was 1.56, the “antibacterial ability (MIC)” value (S. aureus ATCC 29213 [16]; NaCl 100 mM) was 3.125 and the “antibacterial ability (MIC)” value (S. aureus ATCC 29213 [16]; NaCl 200 mM) was 6.25. The “antibacterial ability (MIC)” value (S. aureus ATCC 29213 [16]; NaCl 300 mM) was 25, the antibacterial ability (MIC) (S. aureus ATCC 25923 [17]; Control group) was 1.56 µg/mL and the antibacterial ability (MIC) (S. aureus ATCC 25923 [17]; MgCl2 0.5 mM) was 3.12 µg/mL. For the same molecule, the antibacterial ability (MIC) (S. aureus ATCC 25923 [17]; MgCl2 1.5 mM) was 3.12 µg/mL, the antibacterial ability (MIC) (S. aureus ATCC 25923 [17]; MgCl2 2.5 mM) was 3.12 µg/mL and the “antibacterial ability in different concentration of salt (in words)” value (Bacteria strains) was “better than P-113; also recorded: remains their activity of antibacterial”. For the same molecule, the antibacterial ability (MIC) (S. aureus ATCC 29213 [18]; Control group) was 1.56 µg/mL, the antibacterial ability (MIC) (S. aureus ATCC 29213 [18]; MgCl2 0.5 mM) was 1.56 µg/mL and the antibacterial ability (MIC) (S. aureus ATCC 29213 [18]; MgCl2 1.5 mM) was 1.56 µg/mL. For the same molecule, the antibacterial ability (MIC) (S. aureus ATCC 29213 [18]; MgCl2 2.5 mM) was 1.56 µg/mL, the antibacterial ability (MIC) (P. arugenosa ATCC 9027 [19]; Control group) was 3.12 µg/mL and the antibacterial ability (MIC) (P. arugenosa ATCC 9027 [19]; MgCl2 0.5 mM) was 6.25 µg/mL. The antibacterial ability (MIC) (P. arugenosa ATCC 9027 [19]; MgCl2 1.5 mM) was 6.25 µg/mL and the antibacterial ability (MIC) (P. arugenosa ATCC 9027 [19]; MgCl2 2.5 mM) was 12.5 µg/mL.
In the case of `OC(Cn1cncn1)(Cn1cncn1)c1ccc(F)cc1F` [Flu, fluconazole], the MIC [20] is reported as 16 µg/mL (≈ 52.2 µM), the MIC [21] is reported as greater than 64 µg/mL and the MIC [22] is reported as greater than 64 µg/mL. For the same molecule, the MIC [23] was 1 µg/mL (≈ 3.27 µM), the MIC [24] was 8 µg/mL (≈ 26.1 µM) and the MIC [25] was greater than 64 µg/mL. The MIC [26] was 1 µg/mL (≈ 3.27 µM), the MIC [27] was greater than 64 µg/mL and the MIC [28] was 2 µg/mL (≈ 6.53 µM). The MIC [29] was 0.5 µg/mL (≈ 1.63 µM), the MIC [30] was greater than 64 µg/mL and the MIC [31] was 16 µg/mL (≈ 52.2 µM). The MIC (C. krusei ATCC 6258 YLO6) was 32 µg/mL (≈ 104 µM) and the MIC [32] was 64 µg/mL (≈ 209 µM).
